Tests used:
Assay in all cases: relative viability (nuclei count vs DMSO), 5 days (fraction); higher = more cells survive
CAL-12T = tested on: CAL-12T
How it was run: (§1)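 Lung cancer cell lines in 1536-well plates got either a single drug or a fixed anchor-drug dose together with five library-drug doses (not always all listed) in √10 steps, by pin tool, on the day after seeding. Nuclei were counted after 5 days, and relative viability is the treated-to-vehicle ratio of nuclei counts. Values are medians of duplicate plates.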

COR-L 105 = tested on: COR-L 105
How it was run: as §1

EMC-BAC-2 = tested on: EMC-BAC-2
How it was run: as §1

H3255 = tested on: H3255
How it was run: as §1

LC-2-ad = tested on: LC-2-ad
How it was run: as §1

LK-2 = tested on: LK-2
How it was run: as §1

NCI-H1395 = tested on: NCI-H1395
How it was run: as §1

NCI-H1437 = tested on: NCI-H1437
How it was run: as §1

NCI-H1651 = tested on: NCI-H1651
How it was run: as §1

NCI-H1755 = tested on: NCI-H1755
How it was run: as §1

NCI-H1793 = tested on: NCI-H1793
How it was run: as §1

NCI-H1915 = tested on: NCI-H1915
How it was run: as §1

NCI-H1944 = tested on: NCI-H1944
How it was run: as §1

NCI-H2085 = tested on: NCI-H2085
How it was run: as §1

NCI-H2087 = tested on: NCI-H2087
How it was run: as §1

NCI-H2228 = tested on: NCI-H2228
How it was run: as §1

NCI-H2342 = tested on: NCI-H2342
How it was run: as §1

NCI-H2347 = tested on: NCI-H2347
How it was run: as §1

NCI-H522 = tested on: NCI-H522
How it was run: as §1

NCI-H661 = tested on: NCI-H661
How it was run: as §1

PC-3 [JPC-3] = tested on: PC-3 [JPC-3]
How it was run: as §1

SK-LU-1 = tested on: SK-LU-1
How it was run: as §1

Which relative viability (CAL-12T; first compound 0.2 µM) does the source give for `COCC1(CO)C(=O)C2CCN1CC2` (stereo not given) [PRIMA-1MET] + O=C(c1cc(Cc2n[nH]c(=O)c3ccccc23)ccc1F)N1CCN(C(=O)C2CC2)CC1 [Olaparib] (partner 8 µM) here?
Its relative viability is 0.806.

And the relative viability (CAL-12T; first compound 0.6325 µM)?
The relative viability was 0.747.

What about the relative viability (CAL-12T; first compound 2 µM) of the same molecule?
The relative viability was 0.639.

What about the relative viability (CAL-12T; first compound 6.325 µM) of the same molecule?
The relative viability was 0.445.

And the relative viability (CAL-12T; first compound 20 µM)?
The relative viability was 0.696.

What about the relative viability (COR-L 105; first compound 0.2 µM) of the same molecule?
Its relative viability is 0.687.

And the relative viability (COR-L 105; first compound 0.6325 µM)?
Its relative viability is 0.685.

What about the relative viability (COR-L 105; first compound 2 µM) of the same molecule?
Its relative viability is 0.713.

What about the relative viability (COR-L 105; first compound 6.325 µM) of the same molecule?
Its relative viability is 0.688.

What about the relative viability (COR-L 105; first compound 20 µM) of the same molecule?
The relative viability was 0.458.

What about the relative viability (EMC-BAC-2; first compound 0.2 µM) of the same molecule?
Its relative viability is 0.624.

What about the relative viability (EMC-BAC-2; first compound 0.6325 µM) of the same molecule?
The relative viability was 0.486.

What about the relative viability (EMC-BAC-2; first compound 6.325 µM) of the same molecule?
Its relative viability is 0.499.

What about the relative viability (EMC-BAC-2; first compound 20 µM) of the same molecule?
Its relative viability is 0.43.

What about the relative viability (H3255; first compound 0.2 µM) of the same molecule?
Its relative viability is 0.627.

And the relative viability (H3255; first compound 0.6325 µM)?
Its relative viability is 0.502.

And the relative viability (H3255; first compound 2 µM)?
The relative viability was 0.576.

And the relative viability (H3255; first compound 6.325 µM)?
Its relative viability is 0.606.

What about the relative viability (H3255; first compound 20 µM) of the same molecule?
Its relative viability is 0.533.

What about the relative viability (LC-2-ad; first compound 0.2 µM) of the same molecule?
The relative viability was 0.751.

And the relative viability (LC-2-ad; first compound 0.6325 µM)?
The relative viability was 0.673.

And the relative viability (LC-2-ad; first compound 2 µM)?
The relative viability was 0.659.

What about the relative viability (LC-2-ad; first compound 6.325 µM) of the same molecule?
The relative viability was 0.68.

And the relative viability (LC-2-ad; first compound 20 µM)?
Its relative viability is 0.7.

What about the relative viability (LK-2; first compound 0.2 µM) of the same molecule?
Its relative viability is 0.823.

And the relative viability (LK-2; first compound 0.6325 µM)?
The relative viability was 0.632.

What about the relative viability (LK-2; first compound 2 µM) of the same molecule?
The relative viability was 0.513.

What about the relative viability (LK-2; first compound 6.325 µM) of the same molecule?
The relative viability was 0.423.

And the relative viability (LK-2; first compound 20 µM)?
Its relative viability is 0.0842.

And the relative viability (NCI-H1395; first compound 0.2 µM)?
Its relative viability is 0.51.

What about the relative viability (NCI-H1395; first compound 2 µM) of the same molecule?
Its relative viability is 0.476.

And the relative viability (NCI-H1395; first compound 6.325 µM)?
Its relative viability is 0.432.

And the relative viability (NCI-H1395; first compound 20 µM)?
Its relative viability is 0.426.

And the relative viability (NCI-H1437; first compound 0.2 µM)?
Its relative viability is 0.641.

And the relative viability (NCI-H1437; first compound 0.6325 µM)?
The relative viability was 0.556.

What about the relative viability (NCI-H1437; first compound 2 µM) of the same molecule?
Its relative viability is 0.627.

And the relative viability (NCI-H1437; first compound 6.325 µM)?
Its relative viability is 0.65.

What about the relative viability (NCI-H1437; first compound 20 µM) of the same molecule?
The relative viability was 0.614.

And the relative viability (NCI-H1651; first compound 0.2 µM)?
Its relative viability is 0.226.

And the relative viability (NCI-H1651; first compound 0.6325 µM)?
Its relative viability is 0.158.

What about the relative viability (NCI-H1651; first compound 2 µM) of the same molecule?
The relative viability was 0.179.

And the relative viability (NCI-H1651; first compound 6.325 µM)?
Its relative viability is 0.202.

And the relative viability (NCI-H1651; first compound 20 µM)?
Its relative viability is 0.184.

And the relative viability (NCI-H1755; first compound 0.2 µM)?
Its relative viability is 0.867.

What about the relative viability (NCI-H1755; first compound 0.6325 µM) of the same molecule?
The relative viability was 0.904.

And the relative viability (NCI-H1755; first compound 2 µM)?
Its relative viability is 0.782.

And the relative viability (NCI-H1755; first compound 6.325 µM)?
The relative viability was 0.805.

What about the relative viability (NCI-H1755; first compound 20 µM) of the same molecule?
The relative viability was 0.817.

What about the relative viability (NCI-H1793; first compound 0.2 µM) of the same molecule?
The relative viability was 1.04.

And the relative viability (NCI-H1793; first compound 0.6325 µM)?
Its relative viability is 0.887.

What about the relative viability (NCI-H1793; first compound 6.325 µM) of the same molecule?
The relative viability was 0.843.

What about the relative viability (NCI-H1793; first compound 20 µM) of the same molecule?
Its relative viability is 0.539.

And the relative viability (NCI-H1915; first compound 0.2 µM)?
The relative viability was 0.249.

What about the relative viability (NCI-H1915; first compound 0.6325 µM) of the same molecule?
Its relative viability is 0.235.

And the relative viability (NCI-H1915; first compound 2 µM)?
Its relative viability is 0.239.

And the relative viability (NCI-H1915; first compound 6.325 µM)?
Its relative viability is 0.256.

And the relative viability (NCI-H1915; first compound 20 µM)?
The relative viability was 0.254.

And the relative viability (NCI-H1944; first compound 0.2 µM)?
The relative viability was 0.479.

And the relative viability (NCI-H1944; first compound 0.6325 µM)?
The relative viability was 0.393.

And the relative viability (NCI-H1944; first compound 2 µM)?
The relative viability was 0.415.

What about the relative viability (NCI-H1944; first compound 6.325 µM) of the same molecule?
Its relative viability is 0.398.

And the relative viability (NCI-H1944; first compound 20 µM)?
Its relative viability is 0.457.

What about the relative viability (NCI-H2085; first compound 0.2 µM) of the same molecule?
The relative viability was 0.837.

And the relative viability (NCI-H2085; first compound 0.6325 µM)?
The relative viability was 0.817.

What about the relative viability (NCI-H2085; first compound 2 µM) of the same molecule?
The relative viability was 0.805.

What about the relative viability (NCI-H2085; first compound 6.325 µM) of the same molecule?
Its relative viability is 0.862.

What about the relative viability (NCI-H2085; first compound 20 µM) of the same molecule?
The relative viability was 0.191.

And the relative viability (NCI-H2087; first compound 0.6325 µM)?
Its relative viability is 0.589.

And the relative viability (NCI-H2087; first compound 2 µM)?
Its relative viability is 0.749.

What about the relative viability (NCI-H2087; first compound 6.325 µM) of the same molecule?
The relative viability was 0.649.

What about the relative viability (NCI-H2087; first compound 20 µM) of the same molecule?
The relative viability was 0.241.

What about the relative viability (NCI-H2228; first compound 0.2 µM) of the same molecule?
Its relative viability is 0.768.

And the relative viability (NCI-H2228; first compound 0.6325 µM)?
The relative viability was 0.522.

What about the relative viability (NCI-H2228; first compound 2 µM) of the same molecule?
Its relative viability is 0.762.

What about the relative viability (NCI-H2228; first compound 6.325 µM) of the same molecule?
Its relative viability is 0.577.

What about the relative viability (NCI-H2228; first compound 20 µM) of the same molecule?
Its relative viability is 0.0565.

What about the relative viability (NCI-H2342; first compound 0.2 µM) of the same molecule?
The relative viability was 0.414.

And the relative viability (NCI-H2342; first compound 0.6325 µM)?
The relative viability was 0.432.

What about the relative viability (NCI-H2342; first compound 6.325 µM) of the same molecule?
The relative viability was 0.395.

And the relative viability (NCI-H2342; first compound 20 µM)?
The relative viability was 0.337.

And the relative viability (NCI-H2347; first compound 0.2 µM)?
Its relative viability is 0.641.

What about the relative viability (NCI-H2347; first compound 0.6325 µM) of the same molecule?
Its relative viability is 0.517.

What about the relative viability (NCI-H2347; first compound 2 µM) of the same molecule?
The relative viability was 0.559.

What about the relative viability (NCI-H2347; first compound 6.325 µM) of the same molecule?
Its relative viability is 0.624.

And the relative viability (NCI-H2347; first compound 20 µM)?
Its relative viability is 0.433.

What about the relative viability (NCI-H522; first compound 0.2 µM) of the same molecule?
The relative viability was 0.656.

And the relative viability (NCI-H522; first compound 0.6325 µM)?
Its relative viability is 0.599.

And the relative viability (NCI-H522; first compound 2 µM)?
Its relative viability is 0.625.

What about the relative viability (NCI-H522; first compound 6.325 µM) of the same molecule?
Its relative viability is 0.604.

What about the relative viability (NCI-H522; first compound 20 µM) of the same molecule?
Its relative viability is 0.0709.

What about the relative viability (NCI-H661; first compound 0.2 µM) of the same molecule?
The relative viability was 0.827.

What about the relative viability (NCI-H661; first compound 0.6325 µM) of the same molecule?
The relative viability was 0.721.

What about the relative viability (NCI-H661; first compound 2 µM) of the same molecule?
Its relative viability is 0.76.

And the relative viability (NCI-H661; first compound 6.325 µM)?
Its relative viability is 0.753.

And the relative viability (NCI-H661; first compound 20 µM)?
Its relative viability is 0.751.

What about the relative viability (PC-3 [JPC-3]; first compound 0.2 µM) of the same molecule?
The relative viability was 1.4.

What about the relative viability (PC-3 [JPC-3]; first compound 0.6325 µM) of the same molecule?
The relative viability was 1.26.

What about the relative viability (PC-3 [JPC-3]; first compound 2 µM) of the same molecule?
The relative viability was 1.11.

And the relative viability (PC-3 [JPC-3]; first compound 6.325 µM)?
The relative viability was 1.14.

And the relative viability (PC-3 [JPC-3]; first compound 20 µM)?
The relative viability was 0.981.

And the relative viability (SK-LU-1; first compound 0.2 µM)?
The relative viability was 0.504.

And the relative viability (SK-LU-1; first compound 0.6325 µM)?
Its relative viability is 0.494.

What about the relative viability (SK-LU-1; first compound 2 µM) of the same molecule?
Its relative viability is 0.365.

And the relative viability (SK-LU-1; first compound 6.325 µM)?
Its relative viability is 0.455.

What about the relative viability (SK-LU-1; first compound 20 µM) of the same molecule?
The relative viability was 0.237.

Source: the supplement of paper PMC10307832
